What was measured:
wheat 6-phytase = assay: 6-phytase assay with HPLC analysis; type: biochemical; settings: 0.27 U enzyme, 1.2 mM substrate, sodium acetate buffer 0.2M, pH 5.2, 50° C.
Description: (§1) Referring now to FIGS. 2 through 5, the aforesaid exemplary probe according to the instant invention (compound 2 of FIG. 1) was employed in assays of 3-phytase and 6-phytase activity. The 3-phytase assay consisted of a solution combining A. ficuum 3-phytase (0.27 U) and the penta-ammonium salt of compound 2 (1.2 mM in glycine-HCl buffer 0.2M, pH 2.6, 3 mL). The 3-phytase assay was carried out at 37° C. The 6-phytase assay consisted of a solution combining wheat 6-phytase (0.27 U) and compound 2 (1.2 mM in sodium acetate buffer, 0.2M, pH 5.2, 3 mL). The 6-phytase assay was carried out at 50° C.
(§2) Control assays were similarly prepared but lacked the phytase enzyme. Assays were carried out in tinted vials, capped with septa and stirred continuously. Aliquot samples (30 μL) were taken and diluted with methanol-water (58:42, 970 μL) for HPLC analysis over the 24-hour time course of the assay.
(§3) Mobile phase (pH 4.0) was prepared by mixing methanol (580 mL), water (420 mL), tetrabutylammonium hydroxide (8 mL), 5N aqueous sulfuric acid (0.5 mL), and 6.4 mM aqueous phytic acid (0.2 mL). HPLC analysis was performed on an analytical HPLC system using a reversed phase column (Hamilton PRP-1, 5 μm, 150×4.6 mm). Compounds were quantified by the external standards method.

A. ficuum 3-phytase = assay: 3-phytase assay with HPLC analysis; type: biochemical
Description: as §1, §2, §3

For O=C(NCCCCCCOC1[C@@H](OP(=O)(O)O)[C@H](OP(=O)(O)O)C(OP(=O)(O)O)[C@H](OP(=O)(O)O)[C@H]1OP(=O)(O)O)c1ccccc1 (stereo partly drawn) [compound 2, 5-O-[6-(benzoylamino)hexyl]-D-myo-inositol-1,2,3,4,6-pentakisphosphate], the “substrate for 6-phytase (sequential dephosphorylation, HPLC)” value (wheat 6-phytase) was “serves equally well as a substrate”, the “rate limiting step of the production of compound 7 from compound 2” value (A. ficuum 3-phytase; 3-phytase, accumulation of the triphosphate, no significant diphosphate peak) was “conversion of triphosphate to diphosphate” and the “conversion of compound 2 to compound 7 (complete dephosphorylation) in the presence of 3-phytase” value (A. ficuum 3-phytase; after 24 hours of incubation, 0.27 U enzyme, 1.2 mM substrate, glycine-HCl buffer 0.2M, pH 2.6, 37° C., HPLC) was “completely converted”. For the same compound, the “conversion in the enzyme free control” value (A. ficuum 3-phytase; control lacking the phytase enzyme, 24 hours, glycine-HCl buffer pH 2.6, 37° C., HPLC) was “no conversion” and the “amide bond cleavage separating the UV chromophore from the phytic acid core (benzoic acid by HPLC)” value (A. ficuum 3-phytase; in the assay and in the control) was “no benzoic acid could be detected”.
